Literature values, collected in patent US20030032674A1, “Use of unsaturated fatty acids to treat severe inflammatory diseases” (priority 2001, published 2003).

Legend:
[1] = tested on: natural killer cell activity; settings: infusion; mice and humans; cited from earlier work
platelet aggregation = settings: infusion; cited from earlier work
[2] = infusion; cited from earlier work

1,2,3-trieicosapentaenoyl-glycerol [EPA-TG]
natural killer cell activity [1]: inhibit | platelet aggregation (platelet aggregation): decrease | urinary concentration of prostaglandin I3 and thromboxane A3 [2]: increase
